In brackets after ≈: the same amount, converted by molar mass. Several values for one entry are separate records, joined by “and”; a condition that tells them apart may be missing. Identical values can stand only once. Like-named read-outs stand apart in the source and are kept apart here.
What was measured:
Staphylococcus aureus = assay: MIC by broth microdilution; type: cell-based; conditions: for MIC90: Staphylococcus aureus
Streptococcus pyogenes = assay: MIC by broth microdilution; type: cell-based; conditions: for MIC90: Streptococcus pyogenes
Enterococcus faecium = assay: MIC by broth microdilution; type: cell-based; conditions: for MIC Range: E. faecium 50%VRE, 10 contemporary clinical isolates; for MIC90: Enterococcus faecium, VRE
[1] = test system: Viridans group streptococci; assay: MIC by broth microdilution; type: cell-based
Streptococcus agalactiae = assay: MIC by broth microdilution; type: cell-based; conditions: for MIC90: Streptococcus agalactiae
S. epidermidis = assay: MIC by broth microdilution; type: cell-based; conditions: for MIC90: Staphylococcus epidermidis
Streptococcus pneumoniae = assay: MIC by broth microdilution; type: cell-based; conditions: for MIC90: Streptococcus pneumoniae, PRSP
Enterococcus faecalis = assay: MIC by broth microdilution; type: cell-based; conditions: for MIC Range: Enterococcus faecalis 50% VRE, 10 contemporary clinical isolates; for MIC90: Enterococcus faecalis, VRE
S. aureus MRSA ATCC33591 = assay: Mouse sepsis protection model; type: in vivo, mice; conditions: MRSA septicemia, single i.v. dose 1 h post-infection, survival at 48 h
[2] = S. aureus Daptomycin^NS, 5 contemporary clinical isolates
[3] = S. aureus MRSA, 20 contemporary clinical isolates
[4] = S. aureus VISA, 10 contemporary clinical isolates
[5] = Staphylococcus aureus MSSA, 20 contemporary clinical isolates
[6] = S. pyogenes, 10 contemporary clinical isolates
[7] = Viridans Group Streptococci, 5 isolates (S. sanguis, S. mitis, S. anginosus, S. intermedius, S. salivarius)
[8] = S. agalactiae, 10 contemporary clinical isolates
[9] = S. epidermidis, 20 contemporary clinical isolates

| SMILES | MIC Range (Staphylococcus aureus; [2]) [µg/mL] | MIC Range (Staphylococcus aureus; [3]) [µg/mL] | MIC Range (Staphylococcus aureus; [4]) [µg/mL] | MIC Range (Staphylococcus aureus; [5]) [µg/mL] | MIC90 (Staphylococcus aureus; MRSA) [µg/mL] | MIC90 (Staphylococcus aureus; MSSA) [µg/mL] | MIC90 (Staphylococcus aureus; VISA) [µg/mL] | MIC Range (Streptococcus pyogenes; [6]) [µg/mL] | MIC90 (Streptococcus pyogenes) [µg/mL] | MIC Range (Enterococcus faecium) [µg/mL] | MIC90 (Enterococcus faecium) [µg/mL] | MIC Range [1, 7] [µg/mL] | MIC Range (Streptococcus agalactiae; [8]) [µg/mL] | MIC90 (Streptococcus agalactiae) [µg/mL] | MIC Range (S. epidermidis; [9]) [µg/mL] | MIC90 (S. epidermidis) [µg/mL] | MIC90 (Streptococcus pneumoniae) [µg/mL] | MIC Range (Enterococcus faecalis) [µg/mL] | MIC90 (Enterococcus faecalis) [µg/mL] | other results |
| --- | --- | --- | --- | --- | --- | --- | --- | --- | --- | --- | --- | --- | --- | --- | --- | --- | --- | --- | --- | --- |
| CCCCCCCCCC(=O)N[C@@H](Cc1c[nH]c2ccccc12)C(=O)N[C@H](CC(N)=O)C(=O)N[C@@H](CC(=O)O)C(=O)N[C@@H]1C(=O)NCC(=O)N[C@@H](CCCN)C(=O)N[C@@H](CC(=O)O)C(=O)N[C@H](C)C(=O)N[C@@H](CC(=O)O)C(=O)NCC(=O)N[C@H](CO)C(=O)N[C@@H]([C@H](C)CC(=O)O)C(=O)N[C@@H](CC(=O)c2ccccc2N)C(=O)O[C@@H]1C [Daptomycin] | 2 to 8 | 0.12 to 0.25 | 0.25 to 1 | 0.12 to 0.25 | 0.25 (≈ 0.154 µM) | 0.25 (≈ 0.154 µM) | 1 (≈ 0.617 µM) | ≤0.03 to 0.06 | 0.06 (≈ 0.037 µM) | 0.5 to 1 | 1 (≈ 0.617 µM) | 0.06 to 0.25 | 0.06 to 0.25 | 0.12 (≈ 0.074 µM) | 0.06 to 0.25 | 0.25 (≈ 0.154 µM) | ≤ 0.03 | 0.12 to 8 | 0.5 (≈ 0.309 µM) | MIC Range (Staphylococcus aureus; S. aureus Linezolid^R, 5 contemporary clinical isolates): 0.25 to 0.5 µg/mL |
| CC(=O)NC[C@H]1CN(c2ccc(N3CCOCC3)c(F)c2)C(=O)O1 [Linezolid] | 1 to 32 | 2 to 4 | 1 to 4 | 2 to 4 | 4 (≈ 11.9 µM) | 4 (≈ 11.9 µM) | 2 (≈ 5.93 µM) | 0.5 to 1 | 1 (≈ 2.96 µM) | 1 to 2 | 2 (≈ 5.93 µM) | 0.5 to 1 | 0.5 to 2 | 1 (≈ 2.96 µM) | 1 to 8 | 2 (≈ 5.93 µM) | 1 (≈ 2.96 µM) | 1 to 2 | 2 (≈ 5.93 µM) | – |
| CN[C@H](CC(C)C)C(=O)N[C@H]1C(=O)N[C@@H](CC(N)=O)C(=O)N[C@H]2C(=O)N[C@H]3C(=O)N[C@H](C(=O)N[C@H](C(=O)O)c4cc(O)cc(O)c4-c4cc3ccc4O)[C@H](O)c3ccc(c(Cl)c3)Oc3cc2cc(c3O[C@@H]2O[C@H](CO)[C@@H](O)[C@H](O)[C@H]2O[C@H]2C[C@](C)(N)[C@H](O)[C@H](C)O2)Oc2ccc(cc2Cl)[C@H]1O [Vancomycin, vancomycin] | – | – | – | – | 1 (≈ 0.69 µM) | 1 (≈ 0.69 µM) | 8 (≈ 5.52 µM) | – | 0.25 (≈ 0.173 µM) | – | > 32 | – | – | 0.5 (≈ 0.345 µM) | – | 2 (≈ 1.38 µM) | 0.25 (≈ 0.173 µM) | – | > 32 | PD50 (protective dose at which half of the animals survive) (S. aureus MRSA ATCC33591): 2.75 mg per kg; MIC Range (Staphylococcus aureus): 0.5 to 1 µg/mL and 0.5 to 2 µg/mL and 1 to 8 µg/mL and 0.5 to 8 µg/mL and 1 µg/mL; MIC Range (Streptococcus pyogenes): 0.25 µg/mL (≈ 0.173 µM); MIC Range [1]: 0.25 to 0.5 µg/mL; MIC Range (Streptococcus agalactiae): 0.25 to 0.5 µg/mL; MIC Range (S. epidermidis): 1 to 2 µg/mL; MIC Range (Streptococcus pneumoniae): 0.12 to 0.5 µg/mL |
